From US20230114241A1, “METHODS OF TREATING EPILEPSY USING THE SAME” (Trevena, Inc., priority 2019, published 2023) come the findings set out here.

Some results are limits rather than exact numbers.

Assay type in all cases: cell-based
The target in test [1] is human sphingosine-1-phosphate receptor 3 (S1P3) (Homo sapiens, UniProt Q99500). Briefly: Selectivity: inhibition of cAMP production (HTRF), S1P3 CHO-K1 cells. To be noted: for Emax: CHO-K1, efficacy normalized to maximal efficacy of fimgolimod, read-out: hS1P3 cAMP SPAN; for EC50: inhibition of cAMP production, read-out: hS1P3 cAMP pEC50 (converted). How it is done: (§1) Cell Culturing and Assay Plating Cell lines were cultured in AssayComplete™ Media 6 (DiscoverX Corporation, Cat #: 920018GF2) at 37° C. and 5% CO2 in a humidified CO2 and temperature-controlled incubator. To begin assay plating, cells were washed with Dulbecco's phosphate buffered saline (CellGro, Cat #: 21-031-CV) and lifted from the culturing flask by incubation (37° C., 5 min) with CellStripper (Cellgro, Cat #: 25-056-CI). […] Plated cells were incubated overnight at 37° C. and 5% CO2 in a humidified CO2 and temperature-controlled incubator. Detecting Inhibition of cAMP Production
(§2) S1P3 and S1P5 Agonist-promoted G-protein responses were determined by measuring changes in intracellular cAMP using the HTRF® cAMP HiRange kit (CisBio, Cat #: 62AM6PEJ) based on time-resolved fluorescence resonance energy transfer (TR-FRET) technology. […] Following a 30-minute room temperature incubation the components of the cAMP HiRange kit were added as per the manufacturer's instructions. After an hour incubation at room temperature, plates were analyzed by a BMG PheraStar microplate reader.
(§3) These values are normalized to fimgolimod, a known agonist of the sphingosine-1-phosphate 3 and 5 receptor or CYM5520, a known agonist of the sphingosine-1-phosphate 2 receptor. The tables also include potency values (pEC50) for modulating discrete receptor-mediated activities (inhibition of cAMP production or inositol monophosphate accumulation).
A general note: Changes in cAMP serve as a functional read-out for many G protein-coupled receptors.

For test [2], the target named is T1, human sphingosine-1-phosphate receptor 1 (S1P1) (Homo sapiens, UniProt P21453). Briefly: β-Arrestin2 recruitment assay (PathHunter), S1P1 CHO-K1 cells. To be noted: for Emax: efficacy normalized to maximum efficacy of fingolimod, read-out: hS1P1 B-arrestin2 SPAN; for EC50: β-arrestin2 recruitment, read-out: hS1P1 B-arrestin2 pEC50 (converted). In short, it runs like this:
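Agonist-driven β-arrestin2 recruitment measured by β-galactosidase complementation after 60 min compound exposure at 37 °C and 1 h detection at room temperature. Cells: stable CHO-K1 line expressing tagged human S1P1 with EA-β-arrestin2, plated the night before. Data expressed relative to fingolimod.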
Background: Arrestin recruitment assays detect the binding of arrestin to an activated receptor.
Target sequence in this assay (P21453 whole entry): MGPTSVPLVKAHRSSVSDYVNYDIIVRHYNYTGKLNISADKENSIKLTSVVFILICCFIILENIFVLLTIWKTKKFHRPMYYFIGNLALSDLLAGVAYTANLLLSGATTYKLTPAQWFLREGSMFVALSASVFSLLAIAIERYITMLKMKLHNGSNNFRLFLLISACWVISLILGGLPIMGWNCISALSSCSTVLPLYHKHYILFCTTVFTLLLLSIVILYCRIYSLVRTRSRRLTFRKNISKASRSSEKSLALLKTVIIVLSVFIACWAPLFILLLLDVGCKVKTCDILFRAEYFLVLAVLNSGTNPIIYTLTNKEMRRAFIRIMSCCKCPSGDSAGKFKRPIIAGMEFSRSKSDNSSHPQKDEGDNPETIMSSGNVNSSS
Target sequence in this assay (P32121 whole entry partner): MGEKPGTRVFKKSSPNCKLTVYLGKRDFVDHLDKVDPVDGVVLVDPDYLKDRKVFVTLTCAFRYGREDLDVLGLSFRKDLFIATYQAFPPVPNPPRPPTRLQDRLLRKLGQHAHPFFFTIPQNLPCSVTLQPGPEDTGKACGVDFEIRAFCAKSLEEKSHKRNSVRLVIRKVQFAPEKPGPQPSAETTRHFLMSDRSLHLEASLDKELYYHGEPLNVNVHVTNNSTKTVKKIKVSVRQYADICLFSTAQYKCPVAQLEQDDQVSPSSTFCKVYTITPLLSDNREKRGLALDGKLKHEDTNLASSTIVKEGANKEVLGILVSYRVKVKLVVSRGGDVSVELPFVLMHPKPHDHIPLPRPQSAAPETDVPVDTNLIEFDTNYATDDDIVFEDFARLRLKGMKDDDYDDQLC

Test [3] addresses human sphingosine-1-phosphate receptor 2 (S1P2) (Homo sapiens, UniProt O95136). Briefly: Selectivity: inositol monophosphate production (IP-one), S1P2 CHO-K1 cells. The note with it: for Emax: CHO-K1, efficacy normalized to maximal efficacy of CYM5520, read-out: hS1P2 IP-one SPAN; for EC50: inositol monophosphate accumulation, read-out: hS1P2 IP-one pEC50 (converted). How it is done: as §1
S1P2 Agonist-promoted G-protein responses were determined by measuring changes in intracellular inositol monophosphate using the IP-one TB kit (CisBio, Cat #: 62IPAPEJ) based on time-resolved fluorescence resonance energy transfer (TR-FRET) technology. AssayComplete™ Cell Plating 2 Reagent was removed and replaced with 1× IP-one stimulation buffer (as per manufacturer's instructions) along with test or control compounds at the desired concentrations.
Following a 60-minute incubation at 37° C. and 5% CO2 in a humidified CO2 and temperature-controlled incubator, the components of the IP-one TB kit were added as per the manufacturer's instructions. After an hour incubation at room temperature, plates were analyzed by a BMG PheraStar microplate reader.
as §3

For test [4], the target named is sphingosine-1-phosphate receptor 5 (S1P5) (Homo sapiens, UniProt Q9H228). Put plainly: Selectivity: inhibition of cAMP production (HTRF), S1P5 CHO-K1 cells. The note with it: for Emax: CHO-K1, efficacy normalized to maximal efficacy of fimgolimod, read-out: hS1P5 cAMP SPAN; for EC50: inhibition of cAMP production, read-out: hS1P5 cAMP pEC50 (converted). The protocol:
as §1, §2, §3

Test [5] addresses T1, human sphingosine-1-phosphate receptor 1 (S1P1). Briefly: Inhibition of cAMP production (HTRF cAMP HiRange), S1P1 CHO-K1 cells. To be noted: for Emax: CHO-K1, efficacy normalized to maximum efficacy of fingolimod, read-out: hS1P1 CAMP SPAN; for EC50: read-out: hS1P1 CAMP pEC50 (converted). An outline of the steps: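 Intracellular cAMP changes read by TR-FRET (HTRF HiRange, 1 h room temperature) after 30 min compound exposure at 37 °C. Cells: overnight-plated CHO-K1 stably expressing tagged human S1P1 with EA-β-arrestin2. Responses normalized to fingolimod.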
Target sequence in this assay (P21453 whole entry): as the sequence (P21453 whole entry) above

The mark [6] stands for this setting: inhibition of cAMP production, S1P1.
[7] abbreviates: CHO-K1, β-arrestin2 recruitment.
Setting [8] is: inhibition of cAMP production, potency.

sphingosine-1-phosphate receptor 5 (S1P5), sequence (Q9H228 whole entry): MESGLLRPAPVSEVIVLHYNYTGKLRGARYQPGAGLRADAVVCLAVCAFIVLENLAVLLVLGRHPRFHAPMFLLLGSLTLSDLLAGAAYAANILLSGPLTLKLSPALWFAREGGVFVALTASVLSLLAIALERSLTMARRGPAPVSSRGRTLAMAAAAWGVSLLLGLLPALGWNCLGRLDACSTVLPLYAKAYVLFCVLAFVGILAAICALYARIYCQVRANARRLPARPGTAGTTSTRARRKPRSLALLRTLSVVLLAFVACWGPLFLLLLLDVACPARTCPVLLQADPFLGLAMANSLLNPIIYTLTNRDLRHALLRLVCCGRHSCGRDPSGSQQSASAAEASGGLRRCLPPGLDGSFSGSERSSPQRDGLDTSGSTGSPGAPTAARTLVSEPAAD
human sphingosine-1-phosphate receptor 2 (S1P2), sequence (O95136 whole entry): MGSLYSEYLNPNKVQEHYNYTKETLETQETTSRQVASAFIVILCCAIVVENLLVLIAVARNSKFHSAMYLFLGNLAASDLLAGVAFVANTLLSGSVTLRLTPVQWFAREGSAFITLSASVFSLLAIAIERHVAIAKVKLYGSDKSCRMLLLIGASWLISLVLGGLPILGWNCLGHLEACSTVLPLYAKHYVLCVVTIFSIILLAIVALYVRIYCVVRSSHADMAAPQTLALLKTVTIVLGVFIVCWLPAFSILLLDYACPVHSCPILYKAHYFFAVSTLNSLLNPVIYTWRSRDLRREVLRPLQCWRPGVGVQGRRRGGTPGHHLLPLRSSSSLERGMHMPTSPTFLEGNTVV
human sphingosine-1-phosphate receptor 3 (S1P3), sequence (Q99500 whole entry): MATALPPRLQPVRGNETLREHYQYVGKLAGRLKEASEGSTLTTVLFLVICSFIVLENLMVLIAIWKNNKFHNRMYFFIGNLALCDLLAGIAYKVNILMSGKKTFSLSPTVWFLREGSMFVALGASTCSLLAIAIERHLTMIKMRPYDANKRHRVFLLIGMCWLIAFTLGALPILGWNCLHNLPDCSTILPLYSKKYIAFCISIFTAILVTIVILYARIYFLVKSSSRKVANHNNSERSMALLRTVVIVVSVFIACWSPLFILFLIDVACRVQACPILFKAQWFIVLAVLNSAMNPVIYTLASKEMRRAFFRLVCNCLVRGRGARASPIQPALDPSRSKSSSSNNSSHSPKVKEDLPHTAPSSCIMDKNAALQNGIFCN

Regarding `COc1ccccc1-c1nc(-c2ccc3c(ccn3C(C)C)c2)no1` [Compound 398, 3-(1-isopropyl-1H-indol-5-yl)-5-(2-methoxyphenyl)-1,2,4-oxadiazole], the Emax was less than 50% in test [1]; more than 75% in test [2] (CHO-K1); less than 50% in test [3]; less than 50% in test [4]; more than 75% in test [5]. The EC50 in test [1] was more than 10 µM; in test [2] (S1P1), less than 10 µM; in test [3], more than 10 µM; in test [4], more than 10 µM; in test [5] (setting [6]) it was less than 0.316 µM.
Turning to `CC(C)n1nnc2cc(-c3nc4c(o3)Cc3ccccc3-4)ccc21` [Compound 219, 5-{8H-indeno[1,2-d][1,3]oxazol-2-yl}-1-(propan-2-yl)-1H-1,2,3-benzotriazole], the Emax in test [1] was less than 50%; in test [2] (setting [7]) it was more than 75%; in test [3], less than 50%; in test [4], less than 50%; in test [5] (inhibition of cAMP production) it was less than 75%. Besides, the EC50 in test [1] was more than 10 µM; in test [2] (potency), less than 10 µM; in test [3], less than 10 µM; in test [4] it was more than 10 µM; in test [5] (setting [8]), less than 0.316 µM.
Consider `C=CCNc1ccc(-c2nc(-c3ccc4sc(N)nc4c3)no2)cc1C#N` [Compound 267, 2-(allylamino)-5-(3-(2-aminobenzo[d]thiazol-5-yl)-1,2,4-oxadiazol-5-yl)benzonitrile], for which the Emax is less than 50% in test [1]; less than 75% in test [2] (setting [7]); less than 50% in test [3]; less than 50% in test [4]; less than 75% in test [5] (inhibition of cAMP production). For the same compound, the EC50 in test [1] is more than 10 µM; in test [2] (potency), less than 10 µM; in test [3], more than 10 µM; in test [4], more than 10 µM; in test [5] (setting [8]), less than 0.316 µM.
As for `CCC1(CC)CC(=O)c2cc(-c3nc(-c4ccccc4Cl)no3)ccc2O1` [Compound 221, 6-(3-(2-chlorophenyl)-1,2,4-oxadiazol-5-yl)-2,2-diethylchroman-4-one], the Emax is less than 50% in test [1]; more than 75% in test [2] (setting [7]); less than 50% in test [3]; less than 50% in test [4]; more than 75% in test [5] (inhibition of cAMP production). The EC50 is less than 10 µM in test [1]; less than 10 µM in test [2] (potency); more than 10 µM in test [3]; less than 10 µM in test [4]; less than 0.316 µM in test [5] (setting [8]).
In the case of `CCC1(CC)CC(=O)c2cc(-c3nc(-c4ccnc(O)c4)no3)ccc2O1` [Compound 263, 2,2-diethyl-6-[3-(2-hydroxy-4-pyridyl)-1,2,4-oxadiazol-5-yl]chroman-4-one], the Emax in test [1] is less than 50%; in test [2] (setting [7]), more than 75%; in test [3], less than 50%; in test [4], less than 50%; in test [5] (inhibition of cAMP production) it was more than 75%. Moreover, the EC50 was more than 10 µM in test [1]; less than 10 µM in test [2] (potency); more than 10 µM in test [3]; more than 10 µM in test [4]; less than 0.316 µM in test [5] (setting [8]).
On to `C=CCNc1ccc(-c2nc(-c3cn[nH]c3)no2)cc1C#N` [Compound 252, 5-(3-(1H-pyrazol-4-yl)-1,2,4-oxadiazol-5-yl)-2-(allyl-amino)benzonitrile], for which the Emax in test [1] was less than 50%; in test [2] (setting [7]), more than 75%; in test [3], less than 50%; in test [4], more than 50%; in test [5] (inhibition of cAMP production) it was more than 75%. In addition, the EC50 in test [1], in test [3] and in test [4] was less than 10 µM throughout.
As to `CCC1(CC)CC(=O)c2cc(-c3nc(-c4ccc5[nH]ncc5c4)no3)ccc2O1` [Compound 152, 6-(3-(1H-indazol-5-yl)-1,2,4-oxadiazol-5-yl)-2,2-diethyl-chroman-4-one], the Emax is less than 50% in test [1]; more than 75% in test [2] (setting [7]); less than 50% in test [3]; less than 50% in test [4]; more than 75% in test [5] (inhibition of cAMP production). Moreover, the EC50 was more than 10 µM in test [1]; less than 10 µM in test [2] (potency); more than 10 µM in test [3]; more than 10 µM in test [4]; more than 0.316 µM in test [5] (setting [8]).
For the compound `Cc1ccncc1-c1noc(-c2ccc3c(c2)nnn3C2CCC2)n1` [Compound 417, 1-cyclobutyl-5-[3-(4-methylpyridin-3-yl)-1,2,4-oxadiazol-5-yl]-1H-1,2,3-benzotriazole], the Emax is less than 50% in test [1]; more than 75% in test [2] (CHO-K1); less than 50% in test [3]; less than 50% in test [4]; more than 75% in test [5]. The EC50 was more than 10 µM in test [1]; less than 10 µM in test [2] (S1P1); less than 10 µM in test [3]; more than 10 µM in test [4]; less than 0.316 µM in test [5] (setting [6]).
For the compound `CC(C)Nc1ccc(-c2nc(-c3ccc4oc(=O)[nH]c4c3)no2)cc1C#N` [Compound 422, 2-(isopropylamino)-5-(3-(2-oxo-2,3-dihydrobenzo[d]oxazol-5-yl)-1,2,4-oxadiazol-5-yl)benzonitrile], the Emax is less than 50% in test [1], more than 75% in test [2] (CHO-K1), less than 50% in test [3] and more than 75% in test [5]. Further, the EC50 in test [1] is less than 10 µM; in test [2] (S1P1) it was less than 10 µM; in test [3], less than 10 µM; in test [5] (setting [6]) it was less than 0.316 µM.
Regarding `COc1cnccc1-c1nc(-c2ccc3c(ccn3C(C)C)c2)no1` [Compound 391, 3-(1-isopropyl-1H-indol-5-yl)-5-(3-methoxypyridin-4-yl)-1,2,4-oxadiazole], the Emax was more than 50% in test [1]; more than 75% in test [2] (CHO-K1); less than 50% in test [3]; less than 50% in test [4]; more than 75% in test [5]. In addition, the EC50 in test [1] is less than 10 µM; in test [2] (S1P1), less than 10 µM; in test [3] it was less than 10 µM; in test [4], less than 10 µM; in test [5] (setting [6]), less than 0.316 µM.
Regarding `CC(C)Nc1ccc(-c2nc(-c3ccc4c(c3)NC(=O)C4)no2)cc1C#N` [Compound 496, 2-(isopropylamino)-5-(3-(2-oxoindolin-6-yl)-1,2,4-oxadiazol-5-yl)benzonitrile], the Emax is less than 50% in test [1], more than 75% in test [2] (CHO-K1), less than 50% in test [3] and more than 75% in test [5]. Moreover, the EC50 in test [1] is more than 10 µM; in test [2] (S1P1) it was less than 10 µM; in test [3], more than 10 µM; in test [5] (setting [6]), less than 0.316 µM.
In the case of `COc1ccccc1-c1nnc(-c2ccc3c(c2)oc(=O)n3C)o1` [Compound 406, 6-[5-(2-methoxy-phenyl)-1,3,4-oxadiazol-2-yl]-3-methyl-2,3-dihydro-1,3-benzoxazol-2-one], the Emax in test [1] is less than 50%; in test [2] (CHO-K1) it was more than 75%; in test [3], less than 50%; in test [4], less than 50%; in test [5] it was more than 75%. For the same compound, the EC50 in test [1] was more than 10 µM; in test [2] (S1P1), less than 10 µM; in test [3], more than 10 µM; in test [4], more than 10 µM; in test [5] (setting [6]), less than 0.316 µM.
